Results taken from patent US20100105680A1, “SUBSTITUTED DIMETHYLCYCLOBUTYL COMPOUNDS, THEIR PREPARATION AND USE IN MEDICAMENTS” (priority 2006, published 2010).

Target: T1, sigma-1 receptor (Cavia porcellus, UniProt Q60492)
T1 construct: guinea pig brains were homogenized; from tissue; host or cells: guinea pig brain membranes
Assay: Sigma-1 receptor binding ([3H]-(+)-pentazocine, brain membranes)
Conditions: [3H]-(+)-pentazocine 0.5 nM, guinea pig brain membranes; for inhibition at 0.01 µM / Percent Inhibition Percent Concentration (μM) 0.0100 SIGMA-1 receptor: compound concentration 0.0100 μM; for inhibition at 0.01 µM: read-out: Percent Inhibition Percent Concentration (μM) 0.0100 SIGMA-1 receptor; for inhibition at 0.1 µM / Percent Inhibition Percent Concentration (μM) 0.1000 SIGMA-1 receptor: compound concentration 0.1000 μM; for inhibition at 0.1 µM: read-out: Percent Inhibition Percent Concentration (μM) 0.1000 SIGMA-1 receptor
Experimental: Brain membrane preparation and binding assays for the sigma-1 receptor were performed as described (DeHaven-Hudkins et al., Characterization of the binding of [^3H]-(+)-pentazocine to recognition sites in guinea pig brain, Eur. J. Pharmacol. 227, 371-378) with some modifications.
In brief, guinea pig brains were homogenized in 10 vols. (w/v) of Tris-HCl 50 mM, 0.32 M sucrose, pH 7.4, with a Kinematica Polytron PT 3000 at 15000 r.p.m. for 30 s. The homogenate was centrifuged at 1000 g for 10 min at 4° C. and the supernatants collected and centrifuged again at 48000 g for 15 min at 4° C. The pellet was resuspended in 10 volumes of Tris-HCl buffer (50 mM, pH 7.4), incubated at 37° C. for 30 min, and centrifuged at 48000 g for 20 min at 4° C. Following this, the pellet was resuspended in fresh Tris-HCl buffer (50 mM, pH 7.4) and stored on ice until use.
Each assay tube contained 10 μL of [^3H]-(+)-pentazocine (final concentration of 0.5 nM), 900 μL of the tissue suspension to a final assay volume of 1 mL and a final tissue concentration of approximately 30 mg tissue net weight/mL. Non-specific binding was defined by addition of a final concentration of […] haloperidol. All tubes were incubated at 37° C. for 150 min before termination of the reaction by rapid filtration over Schleicher & Schuell GF 3362 glass fibre filters [previously soaked in a solution of 0.5% polyethylenimine for at least 1 h]. Filters were then washed with four times with 4 mL of cold Tris-HCl buffer (50 mM, pH 7.4). Following addition of scintillation cocktail, the samples were allowed to equilibrate overnight. The amount of bound radioactivity was determined by liquid scintillation spectrometry using a Wallac Winspectral 1414 liquid scintillation counter. Protein concentrations were determined by the method of Lowry et al. (Protein measurement with the Folin phenol reagent, J. Biol. Chem, 193, 265).
The binding of the compounds of the present invention to sigma-1 receptors was tested as described above.

T1 sequence (Q60492 whole entry): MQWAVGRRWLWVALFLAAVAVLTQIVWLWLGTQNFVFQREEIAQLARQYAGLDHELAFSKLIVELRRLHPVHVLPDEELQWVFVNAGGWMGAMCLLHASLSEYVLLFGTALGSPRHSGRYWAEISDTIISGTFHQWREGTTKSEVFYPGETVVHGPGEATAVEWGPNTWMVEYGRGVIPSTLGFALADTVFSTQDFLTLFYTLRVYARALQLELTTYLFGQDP

Row | SMILES | inhibition at 0.01 µM [%] | inhibition at 0.1 µM [%] | Ki [nM] | Percent Inhibition Percent Concentration (μM) 0.0100 SIGMA-1 receptor [%] | Percent Inhibition Percent Concentration (μM) 0.1000 SIGMA-1 receptor [%]
1 | CC1(C)[C@H](CCO)C[C@@H]1CN1CCCCC1 [compound 18] | -21.4 | 44.8 | – | – | –
2 | CC1(C)[C@@H](CCOc2ccccc2)C[C@H]1CN1CCCCC1 [compound 16] | 97.5 | 96.4 | 2.2 | – | –
3 | CC1(C)[C@@H](COCc2ccccc2)C[C@H]1CN1CCN(c2ccccc2)CC1 [compound 9] | 60 | 94.7 | 14.6 | – | –
4 | CC(O)[C@@H]1C[C@H](CCN2CCCCC2)C1(C)C (stereo partly shown) [compound 12] | 5.5 | 44.1 | – | – | –
5 | CC1(C)[C@@H](CCOc2ccccc2)C[C@H]1CN1CCOCC1 [compound 15] | 93.6 | 95.4 | 4.2 | – | –
6 | CC1(C)[C@H](CCOCc2ccccc2)C[C@@H]1CN1CCOCC1 [compound 1] | 62.8 | 79.7 | 6.1 | – | –
7 | CC(O)(c1ccccc1)[C@@H]1C[C@H](CCN2CCOCC2)C1(C)C (stereo partly shown) [compound 13] | 77.8 | 95.2 | 1.2 | – | –
8 | CN1CCN(C[C@H]2C[C@@H](CCOCc3ccccc3)C2(C)C)CC1 [compound 5] | 42.5 | 92.4 | – | – | –
9 | CC(O)[C@@H]1C[C@H](CCN2CCOCC2)C1(C)C (stereo partly shown) [compound 11] | -8.3 | 44.4 | – | – | –
10 | CC1(C)[C@@H](COCc2ccccc2)C[C@H]1CN1CCC(c2ccccc2)CC1 [compound 8] | 48.3 | 101 | 10.9 | – | –
11 | CC1(C)[C@@H](COCc2ccccc2)C[C@H]1CN1CCOCC1 [compound 6] | 91 | 98.4 | 1.3 | – | –
12 | CN1CCN(C[C@@H]2C[C@H](CCOCc3ccccc3)C2(C)C)CC1.O=C(O)C(=O)O [compound 35] | – | – | 5.3 | 76.7 | 95.9
13 | CC1(C)[C@@H](CCO)C[C@H]1CN1CCCCC1 [compound 17] | 45.2 | 61.5 | 41.8 | – | –
14 | CN1CCN(C[C@@H]2C[C@H](COCc3ccccc3)C2(C)C)CC1 [compound 10] | 86.7 | 99.5 | 0.95 | – | –
15 | CC1(C)[C@@H](CCOCc2ccccc2)C[C@H]1CN1CCN(c2ccccc2)CC1 [compound 36] | 65.8 | 88.3 | 47 | – | –
16 | CC1(C)[C@H](CCOCc2ccccc2)C[C@@H]1CN1CCCCC1 [compound 2] | 66.5 | 95.9 | 1.5 | – | –
17 | CC1(C)[C@@H](CCOCc2ccccc2)C[C@H]1CN1CCN(c2ccccc2)CC1.O=C(O)C(=O)O [compound 37] | – | – | 33.5 | 79.7 | 98.8
18 | CC1(C)[C@H](CCOCc2ccccc2)C[C@@H]1CN1CCC(c2ccccc2)CC1 [compound 3] | 30.2 | 97.7 | – | – | –
19 | CC1(C)[C@H](CCOCc2ccccc2)C[C@@H]1CN1CCN(c2ccccc2)CC1 [compound 4] | 24.1 | 82.2 | – | – | –
20 | CC(O)(c1ccccc1)[C@@H]1C[C@H](CCN2CCCCC2)C1(C)C (stereo partly shown) [compound 14] | 75.6 | 97.5 | 1.9 | – | –

Now from value to compound, other results behind:

Row | inhibition at 0.01 µM [%] | inhibition at 0.1 µM [%] | Ki [nM] | SMILES | Percent Inhibition Percent Concentration (μM) 0.0100 SIGMA-1 receptor [%] | Percent Inhibition Percent Concentration (μM) 0.1000 SIGMA-1 receptor [%]
21 | 93.5 | 100 | 5 | CC1CCN(C[C@@H]2C[C@H](CCOCc3ccccc3)C2(C)C)CC1 [compound 28] | – | –
22 | 36.1 | 81.9 | – | CC1(C)[C@@H](CCN2CCC(c3ccccc3)CC2)C[C@H]1CN1CCCCC1 [compound 51] | – | –
23 | 19.7 | 88 | – | CC1(C)[C@@H](CCN2CCC(Cc3ccccc3)CC2)C[C@H]1CN1CCOCC1 [compound 42] | – | –
24 | 91.9 | 96.8 | 1.4 | CC1(C)[C@@H](CCO)C[C@H]1CN1CCC(c2ccccc2)CC1 [compound 22] | – | –
25 | 42.2 | 87.1 | 11.7 | CC1(C)[C@@H](CCN2CCc3ccccc3C2)C[C@H]1CN1CCCCC1 [compound 54] | – | –
26 | 69.7 | 92 | 3.3 | CN(Cc1ccccc1)CC1CC(CCO)C1(C)C (stereo not shown) [compound 24] | – | –
27 | 2 | 20.9 | – | CC1(C)[C@@H](CCn2cncn2)C[C@H]1CN1CCCCC1 [compound 50] | – | –
28 | 17.1 | 42.3 | – | CC1(C)[C@@H](CCO)C[C@H]1CN1CCOCC1 [compound 19] | – | –
29 | 88.6 | 98.5 | 1.2 | CC1(C)[C@H](COCc2ccccc2)C[C@@H]1CCN1CCCCC1 [compound 38] | – | –
30 | 76.9 | 95.6 | 16.6 | CC1(C)[C@@H](CCOCc2ccccc2)C[C@H]1CN1CCC(c2ccccc2)CC1 [compound 29] | – | –
31 | 23.9 | 50 | – | COC(=O)C[C@H]1C[C@@H](CN2CCCCC2)C1(C)C [compound 26] | – | –
32 | -0.6 | 52.6 | – | CC1(C)[C@@H](CCN2CCC(Cc3ccccc3)CC2)C[C@H]1CN1CCCCC1 [compound 52] | – | –
33 | 16.3 | 60.1 | – | CC1(C)[C@@H](CCN2CCCC(c3ccccc3)C2)C[C@H]1CN1CCOCC1 (stereo partly shown) [compound 40] | – | –
34 | 34.3 | 72.4 | – | CC1(C)[C@@H](CCn2ccnc2)C[C@H]1CN1CCCCC1 [compound 48] | – | –
35 | 25.7 | 77.1 | – | CC1CCN(C[C@@H]2C[C@H](CCO)C2(C)C)CC1 [compound 21] | – | –
36 | 96.5 | 104 | 1.1 | CC1(C)[C@@H](CCOCc2ccccc2)C[C@H]1CN1CCCCC1 [compound 27] | – | –
37 | 31.5 | 63.1 | – | CC1(C)[C@H](CCO)C[C@@H]1CN1CCOCC1 [compound 20] | – | –
38 | 83 | 98.3 | 1.2 | CC1(C)[C@H](CO)C[C@@H]1CCN1CCC(Cc2ccccc2)CC1 [compound 25] | – | –
39 | 45.7 | 92 | 4.9 | CC1(C)[C@@H](CCn2cccn2)C[C@H]1CN1CCCCC1 [compound 49] | – | –
40 | 94.1 | 95.8 | 8.4 | CC1(C)[C@H](COCc2ccccc2)C[C@@H]1CCN1CCOCC1 [compound 39] | – | –
41 | 50.2 | 83 | 13.5 | CC1(C)[C@@H](CCn2ccc3c2CCCC3=O)C[C@H]1CN1CCOCC1 [compound 46] | – | –
42 | 94.6 | 99.1 | 3.6 | C[C@@H]1CN(C[C@@H]2C[C@H](CCOCc3ccccc3)C2(C)C)C[C@H](C)O1 [compound 32] | – | –
43 | 89.9 | 101 | 1.7 | CC1(C)[C@@H](CCOCc2ccccc2)C[C@H]1CN1CCOCC1 [compound 31] | – | –
44 | 41.7 | 82.8 | – | CC1(C)[C@@H](CCn2cccn2)C[C@H]1CN1CCOCC1 [compound 44] | – | –
45 | 92.3 | 96.2 | 3.6 | CN1CCN(C[C@@H]2C[C@H](CCOCc3ccccc3)C2(C)C)CC1 [compound 34] | – | –
46 | 27.6 | 70.6 | – | C[C@@H]1CN(C[C@@H]2C[C@H](CCO)C2(C)C)C[C@H](C)O1 [compound 23] | – | –
47 | 85.3 | 89.8 | 0.6 ± 0.2 | CC1(C)[C@@H](CCOCc2ccccc2)C[C@H]1CN1CCCC1 [compound 33] | – | –
48 | 74 | 91.8 | 1 | CC1(C)[C@@H](CCOCc2ccccc2)C[C@H]1CN1CCSCC1 [compound 30] | – | –
49 | -6.6 | 73.6 | – | CC1(C)[C@@H](CCn2ccc3c2CCCC3=O)C[C@H]1CN1CCCCC1 [compound 53] | – | –
50 | 10.3 | 28.4 | – | CC1(C)[C@@H](CCn2cncn2)C[C@H]1CN1CCOCC1 [compound 45] | – | –
